Numbers after ± are expanded uncertainties.
Assay: xn = mol fraction of the nth substance listed
Details: 298.15 K, Liquid

CCOS(=O)(=O)[O-].CCn1cc[n+](C)c1 [1-ethyl-3-methylimidazolium ethyl sulfate] + CCO
mass density [kg/m3]
Details	100 kPa	2500 kPa	5000 kPa	10000 kPa	15000 kPa	20000 kPa	25000 kPa	30000 kPa	35000 kPa
x1 = 0.05056	855.98 ± 0.66	857.88 ± 0.71	859.83 ± 0.77	863.62 ± 0.88	867.22 ± 0.99	870.7 ± 1.1	874.05 ± 1.2	877.28 ± 1.4	880.4 ± 1.5
x1 = 0.103	913.93 ± 0.58	915.61 ± 0.6	917.4 ± 0.6	920.89 ± 0.68	924.24 ± 0.73	927.48 ± 0.78	930.6 ± 0.8	933.63 ± 0.86	936.57 ± 0.9
x1 = 0.1247	935.16 ± 0.54	936.81 ± 0.56	938.54 ± 0.58	941.91 ± 0.61	945.16 ± 0.64	948.3 ± 0.7	951.34 ± 0.69	954.29 ± 0.71	957.15 ± 0.73
x1 = 0.2126	1003.9 ± 0.5	1005.45 ± 0.46	1007.01 ± 0.47	1010.07 ± 0.48	1013.02 ± 0.49	1015.88 ± 0.5	1018.67 ± 0.53	1021.38 ± 0.55	1024.03 ± 0.58
x1 = 0.2919	1052 ± 1	1052.97 ± 0.52	1054.41 ± 0.54	1057.22 ± 0.59	1059.95 ± 0.65	1062.62 ± 0.71	1065.22 ± 0.78	1067.75 ± 0.86	1070.23 ± 0.94
x1 = 0.3185	1065.62 ± 0.52	1066.9 ± 0.5	1068.3 ± 0.6	1071.05 ± 0.63	1073.73 ± 0.7	1076.33 ± 0.78	1078.88 ± 0.86	1081.37 ± 0.96	1083.79 ± 1.1
x1 = 0.4198	1109.11 ± 0.58	1110.35 ± 0.62	1111.65 ± 0.67	1114.21 ± 0.78	1116.72 ± 0.89	1119.15 ± 1	1121.54 ± 1.2	1123.89 ± 1.4	1126.17 ± 1.5
x1 = 0.4847	1131.56 ± 0.61	1132.76 ± 0.67	1133.99 ± 0.73	1136.46 ± 0.86	1138.86 ± 1	1141.21 ± 1.2	1143.53 ± 1.4	1145.8 ± 1.6	1148.02 ± 1.7
x1 = 0.5713	1157.07 ± 0.66	1158.2 ± 0.7	1159.39 ± 0.8	1161.74 ± 0.96	1164.05 ± 1.1	1166.31 ± 1.4	1168.52 ± 1.6	1170.7 ± 1.8	1172.85 ± 2
x1 = 0.6827	1183.93 ± 0.7	1185.01 ± 0.79	1186.16 ± 0.87	1188.41 ± 1.1	1190.6 ± 1.3	1192.77 ± 1.6	1194.89 ± 1.8	1197 ± 2	1199.05 ± 2.3
x1 = 0.7919	1205.61 ± 0.75	1206.51 ± 0.84	1207.59 ± 0.94	1209.76 ± 1.2	1211.88 ± 1.4	1213.98 ± 1.7	1216.03 ± 2	1218.05 ± 2.2	1220.04 ± 2.5
x1 = 0.9317	1227.5 ± 0.8	1228.53 ± 0.89	1229.57 ± 1	1231.66 ± 1.3	1233.72 ± 1.6	1235.74 ± 1.9	1237.73 ± 2.1	1239.69 ± 2.4	1241.63 ± 2.7
